Each structure is given as a SMILES string. Where two headings read alike, the source gives them in different places.

In test [1] the target is T1, GST A1-1 (Homo sapiens, UniProt P08263).
T1 sequence (P08263 1-222): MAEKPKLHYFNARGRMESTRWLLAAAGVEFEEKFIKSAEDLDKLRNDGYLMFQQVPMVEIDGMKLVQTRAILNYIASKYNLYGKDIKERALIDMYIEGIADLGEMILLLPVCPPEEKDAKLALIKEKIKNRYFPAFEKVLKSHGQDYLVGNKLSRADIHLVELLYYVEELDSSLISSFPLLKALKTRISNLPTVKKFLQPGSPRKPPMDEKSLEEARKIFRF
Conditions: read-out: IC50 Values GST A1-1.

The target of test [2] is T2, GST A2-2 (Homo sapiens, UniProt P09210).
T2 sequence (P09210 1-222): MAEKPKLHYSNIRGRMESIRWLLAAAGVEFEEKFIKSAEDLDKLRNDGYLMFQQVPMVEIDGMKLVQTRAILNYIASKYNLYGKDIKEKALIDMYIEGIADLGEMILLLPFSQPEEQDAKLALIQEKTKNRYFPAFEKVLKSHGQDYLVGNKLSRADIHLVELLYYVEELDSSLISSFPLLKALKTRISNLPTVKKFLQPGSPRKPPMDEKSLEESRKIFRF
The settings on record: read-out: IC50 Values GST A2-2.

The target in test [3] is T3, GST A3-3 (Homo sapiens, UniProt Q16772).
T3 sequence (Q16772 1-222): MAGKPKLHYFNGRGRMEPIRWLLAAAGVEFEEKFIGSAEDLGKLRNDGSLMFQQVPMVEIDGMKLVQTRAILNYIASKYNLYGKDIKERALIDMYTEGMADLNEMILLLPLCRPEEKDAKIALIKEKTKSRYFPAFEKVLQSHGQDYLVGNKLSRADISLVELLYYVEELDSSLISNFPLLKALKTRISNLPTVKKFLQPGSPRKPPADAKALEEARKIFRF
The settings on record: read-out: IC50 Values GST A3-3.

Test [4] deals with T2, GST A2-2. Description: biochemical.
In test [5] the target is T1, GST A1-1. Description: biochemical.
Test [6] addresses T3, GST A3-3. Description: biochemical.

Take `CCC[CH2][Sn]([CH2]CCC)([CH2]CCC)[O]C(C)=O` [Bu3SnAc]: the IC50 stood at 0.018 µM in test [1], 0.41 µM in test [2] and 0.018 µM in test [3].
With `CC(=O)[O][Sn]([c]1ccccc1)([c]1ccccc1)[c]1ccccc1` [Ph3SnAc], the IC50 in test [1] and in test [3] was 0.16 µM each time.
Take `C[CH2][Ge]([Cl])([CH2]C)[CH2]C` [Et3GeCl]: the IC50 in test [4] stood at 0.8 µM; in test [5], 56 µM; in test [6], 67 µM.
On the same counts, the results for `[Cl][Pb]([c]1ccccc1)([c]1ccccc1)[c]1ccccc1` [Ph3PbCl] are 0.084 µM, 0.0046 µM and 0.013 µM.
Consider `C[CH2][Pb]([Cl])([CH2]C)[CH2]C` [Et3PbCl], for which the results for the IC50 in test [5] and in test [6] were 2 µM and 2.3 µM, respectively.
`[Br][Pb]([c]1ccccc1)([c]1ccccc1)[c]1ccccc1` [Ph3PbBr]: the IC50 is 0.0086 µM in test [5] and 0.16 µM in test [6].

By IC50 is commonly meant the concentration that inhibits the measured activity by half.

The values are drawn from patent publication US20060148020A1, “Inhibitors of gst a3-3 and gst a1-1 for the treatment of cancer” (priority 2002, published 2006).
